The values below come from ChEMBL document CHEMBL2417471, “Synthesis and biological activity of (24E)- and (24Z)-26-hydroxydesmosterol” (Bioorg Med Chem, 2013).

Molecules are shown by their SMILES. The source made the active and inactive calls. The rule behind the calls is not given here.

The test system of the first assay is SN4741. Description: Agonist activity at LXR in mouse SN4741 cells assessed as upregulation of ABCA1 protein expression at 10 uM by immunoblot analysis. The assay is classed as cell-based. (In western blotting, separated proteins are transferred to a membrane and probed.)
On to `C/C(=C\CC[C@@H](C)[C@H]1CC[C@H]2[C@@H]3CC=C4C[C@@H](O)CC[C@]4(C)[C@H]3CC[C@]12C)CO`, for which the outcome was inactive.
With `C/C(=C/CC[C@@H](C)[C@H]1CC[C@H]2[C@@H]3CC=C4C[C@@H](O)CC[C@]4(C)[C@H]3CC[C@]12C)CO`, the outcome was inactive.
The same measure, in the same setting: the same measure for `CC(C)=CCC[C@@H](C)[C@H]1CC[C@H]2[C@@H]3CC=C4C[C@@H](O)CC[C@]4(C)[C@H]3CC[C@]12C`: “Active”.

The next assay has as its target T1, Oxysterols receptor LXR-beta (Homo sapiens) (UniProt P55055).
T1 sequence (whole entry): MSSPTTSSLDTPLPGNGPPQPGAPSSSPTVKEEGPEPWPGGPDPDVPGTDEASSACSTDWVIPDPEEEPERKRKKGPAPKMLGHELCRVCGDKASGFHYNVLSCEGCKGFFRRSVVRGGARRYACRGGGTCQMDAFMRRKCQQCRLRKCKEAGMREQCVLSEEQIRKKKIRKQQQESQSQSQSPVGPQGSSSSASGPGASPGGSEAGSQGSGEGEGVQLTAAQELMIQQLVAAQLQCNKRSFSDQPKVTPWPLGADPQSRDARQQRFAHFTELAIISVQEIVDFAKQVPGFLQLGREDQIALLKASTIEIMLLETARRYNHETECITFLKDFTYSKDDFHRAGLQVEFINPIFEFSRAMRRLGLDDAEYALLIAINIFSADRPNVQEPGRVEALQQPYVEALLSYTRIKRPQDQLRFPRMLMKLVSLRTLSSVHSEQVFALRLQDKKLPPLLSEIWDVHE
The experiment in a line: Agonist activity at LXRbeta (unknown origin) transfected in mouse SN4741 cells at 10 uM after 24 hrs by luciferase reporter gene assay. The assay is classed as cell-based. (In general: In a reporter assay the amount or activity of a reporter protein is the signal.)
On to `C/C(=C\CC[C@@H](C)[C@H]1CC[C@H]2[C@@H]3CC=C4C[C@@H](O)CC[C@]4(C)[C@H]3CC[C@]12C)CO`, for which the outcome was inactive.
With `C/C(=C/CC[C@@H](C)[C@H]1CC[C@H]2[C@@H]3CC=C4C[C@@H](O)CC[C@]4(C)[C@H]3CC[C@]12C)CO`, the result was inactive.
For the compound `CC(C)=CCC[C@@H](C)[C@H]1CC[C@H]2[C@@H]3CC=C4C[C@@H](O)CC[C@]4(C)[C@H]3CC[C@]12C`, the outcome was Active.

In the next assay the target is T2, Oxysterols receptor LXR-alpha (Homo sapiens) (UniProt Q13133).
T2 sequence (whole entry): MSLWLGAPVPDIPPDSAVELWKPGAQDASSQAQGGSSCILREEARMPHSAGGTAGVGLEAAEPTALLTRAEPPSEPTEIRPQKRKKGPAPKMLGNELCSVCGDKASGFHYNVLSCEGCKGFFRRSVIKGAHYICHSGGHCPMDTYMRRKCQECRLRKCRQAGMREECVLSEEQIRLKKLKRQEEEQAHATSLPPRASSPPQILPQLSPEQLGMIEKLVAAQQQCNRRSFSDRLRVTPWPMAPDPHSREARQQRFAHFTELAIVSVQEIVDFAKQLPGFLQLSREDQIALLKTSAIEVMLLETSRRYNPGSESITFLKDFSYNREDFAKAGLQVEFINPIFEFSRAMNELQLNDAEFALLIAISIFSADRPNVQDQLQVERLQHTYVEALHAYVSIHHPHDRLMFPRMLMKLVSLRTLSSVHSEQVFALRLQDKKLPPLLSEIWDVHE
The experiment in a line: Agonist activity at LXRalpha (unknown origin) transfected in mouse SN4741 cells at 10 uM after 24 hrs by luciferase reporter gene assay. Type of assay: cell-based.
With `C/C(=C\CC[C@@H](C)[C@H]1CC[C@H]2[C@@H]3CC=C4C[C@@H](O)CC[C@]4(C)[C@H]3CC[C@]12C)CO`, the result was inactive.
For `C/C(=C/CC[C@@H](C)[C@H]1CC[C@H]2[C@@H]3CC=C4C[C@@H](O)CC[C@]4(C)[C@H]3CC[C@]12C)CO`, the result was inactive.
As for `CC(C)=CCC[C@@H](C)[C@H]1CC[C@H]2[C@@H]3CC=C4C[C@@H](O)CC[C@]4(C)[C@H]3CC[C@]12C`, the result was Active.
